# Target: GDP-bound KRAS protein (aa 1-169), containing both G12C and C118A amino acid substitutions (Homo sapiens, UniProt P01116, C118A/G12C)
# Experiment: Coupled nucleotide exchange assay (SOS-mediated, AlphaScreen)
# Type: biochemical
# Conditions: 5 min compound pre-incubation
# GDP-bound KRAS protein (aa 1-169), containing both G12C and C118A amino acid substitutions, sequence (P01116 1-169 isoform P01116-2 G12C/C118A): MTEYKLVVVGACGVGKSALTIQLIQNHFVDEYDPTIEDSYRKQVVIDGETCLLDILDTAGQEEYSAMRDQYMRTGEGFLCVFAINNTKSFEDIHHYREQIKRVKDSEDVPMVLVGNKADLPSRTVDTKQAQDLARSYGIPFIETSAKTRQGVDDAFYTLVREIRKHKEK
row,Coupled exchange IC50 (5 min),Structure (SMILES)
1,75.5 | nda μM,"C=CC(=O)N1CCN(c2nc(=O)n(-c3c(CC)cccc3CC)c3nc(N4CCOC5(CCCC5)C4)c(Cl)cc23)[C@@H](C)C1 [Example 66-17, 6-chloro-1-(2,6-diethylphenyl)-4-((2S)-2-methyl-4-(2-propenoyl)-1-piperazinyl)-7-(6-oxa-9-azaspiro[4.5]decan-9-yl)pyrido[2,3-d]pyrimidin-2(1H)-one]"
2,4.85 | nda μM,"C=CC(=O)N1CCN(c2nc(=O)n(-c3c(CC)cccc3CC)c3nc(-c4ccccc4F)c(Cl)cc23)[C@@H](C(=O)O)C1 [Example 96, (2R)-1-(6-Chloro-1-(2,6-diethylphenyl)-7-(2-fluorophenyl)-2-oxo-1,2-dihydropyrido[2,3-d]pyrimidin-4-yl)-4-(2-propenoyl)-2-piperazinecarboxylic acid]"
3,0.824 | nda μM,"C=CC(=O)N1CCN(c2nc(=O)n(-c3c(C)cc(CO)cc3C(C)C)c3nc(-c4ccccc4F)c(Cl)cc23)[C@@H](C)C1 (single isomer, unassigned) [Example 80-2-1]"
4,0.497 | nda μM,"C=CC(=O)N1CCN(c2nc(=O)n(-c3c(C)ccnc3C(C)C)c3nc(-c4ccccc4F)c(C)nc23)[C@@H](C)C1 [Example 143, 7-(2-Fluorophenyl)-6-methyl-1-(4-methyl-2-(2-propanyl)-3-pyridinyl)-4-((2S)-2-methyl-4-(2-propenoyl)-1-piperazinyl)-2(1H)-pteridinone]"
5,1.26 | nda μM,"C=CC(=O)N1CCN(c2nc(=O)n(-c3c(C)ccnc3C(C)C)c3nc(-c4ccccc4F)c(Cl)cc23)[C@H](C(F)(F)F)C1 (single isomer, unassigned) [Example 78-9-1]"
6,95 | nda μM,"C=CC(=O)N1CCN(c2nc(=O)n(-c3c(CC)cccc3CC)c3nc(N4CCOC(C5CC5)C4)c(Cl)cc23)[C@@H](C)C1 (stereo partly drawn) [Example 66-25, 6-chloro-7-(2-cyclopropyl-4-morpholinyl)-1-(2,6-diethylphenyl)-4-((2S)-2-methyl-4-(2-propenoyl)-1-piperazinyl)pyrido[2,3-d]pyrimidin-2(1H)-one]"
7,1.26 | nda μM,"C=CC(=O)N1CCN(c2nc(=O)n(-c3c(C)ncnc3C3CC3)c3nc(-c4ccccc4F)c(Cl)cc23)[C@@H](C)C1 (single isomer, unassigned) [Example 60-30-1]"
8,0.625 | nda μM,"C=CC(=O)N1C[C@@H](C)N(c2nc(=O)n(-c3c(C)ccnc3C(C)C)c3nc(Cl)c(Cl)cc23)[C@@H](C)C1 (atropisomer, axis not shown; (M)) [Example 73-11, (M)-6,7-dichloro-4-(cis-2,6-dimethyl-4-(2-propenoyl)-1-piperazinyl)-1-(4-methyl-2-(2-propanyl)-3-pyridinyl)pyrido[2,3-d]pyrimidin-2(1H)-one]"
9,14.9 | nda μM,"C=CC(=O)N1CCN(c2nc(=O)n(-c3c(CC)cccc3CC)c3nc(N4CC[C@H](F)C4)c(Cl)cc23)[C@@H](C)C1 [Example 66-6, 6-chloro-1-(2,6-diethylphenyl)-7-((3S)-3-fluoro-1-pyrrolidinyl)-4-((2S)-2-methyl-4-(2-propenoyl)-1-piperazinyl)pyrido[2,3-d]pyrimidin-2(1H)-one]"
10,6.435 | nda μM,"C=CC(=O)N1CCN(c2nc(=O)n(-c3c(C)cccc3C(C)C)c3nc(-c4cc(Cl)ccc4O)c(F)cc23)[C@@H](C)C1 (single isomer, unassigned) [Example 114]"
11,21.3 | nda μM,"C=CC(=O)N1CCN(c2nc(=O)n(-c3ncccc3C3(C#N)CC3)c3nc(-c4c(O)cccc4F)c(Cl)cc23)[C@@H](C)C1 [Example 54-40, 1-(2-(6-chloro-7-(2-fluoro-6-hydroxyphenyl)-4-((2S)-2-methyl-4-(2-propenoyl)-1-piperazinyl)-2-oxopyrido[2,3-d]pyrimidin-1(2H)-yl)-3-pyridinyl) cyclopropane carbonitrile]"
12,160 | nda μM,"C=CC(=O)N1CCN(c2nc(=O)n(-c3c(CC)cccc3CC)c3nc(N4CCC[C@@H]4C#N)c(Cl)cc23)[C@@H](C)C1 [Example 66-23, (2R)-1-(6-chloro-1-(2,6-diethylphenyl)-4-((2S)-2-methyl-4-(2-propenoyl)-1-piperazinyl)-2-oxo-1,2-dihydropyrido[2,3-d]pyrimidin-7-yl)-2-pyrrolidinecarbonitrile]"
13,1.59 | nda μM,"C=CC(=O)N1CCN(c2nc(=O)n(-c3ccccc3C(F)(F)F)c3cc(-c4ccccc4F)c(Cl)cc23)[C@@H](C)C1 [Example 93, 6-Chloro-7-(2-fluorophenyl)-4-((2S)-2-methyl-4-(2-propenoyl)-1-piperazinyl)-1-(2-(trifluoromethyl)phenyl)-2(1H)-quinazolinone]"
14,3.44 | nda μM,"C=CC(=O)N1CCN(c2nc(=O)n(-c3ccccc3C#N)c3nc(-c4c(O)cccc4F)c(Cl)cc23)[C@@H](C)C1 [Example 54-58, 2-(6-chloro-7-(2-fluoro-6-hydroxyphenyl)-4-((2S)-2-methyl-4-(2-propenoyl)-1-piperazinyl)-2-oxopyrido[2,3-d]pyrimidin-1(2H)-yl)benzonitrile]"
15,2.49 | nda μM,C=CC(=O)N1CCN(c2nc(=O)n(-c3ccccc3S(C)(=O)=O)c3nc(-c4c(O)cccc4F)c(Cl)cc23)[C@@H](C)C1 [Example 54-56-1]
16,0.355 | nda μM,"C=CC(=O)N1CCN(c2nc(=O)n(-c3c[nH]cc3C(C)C)c3nc(-c4ccccc4F)c(Cl)cc23)[C@@H](C)C1 [Example 54-109, 6-chloro-7-(2-fluorophenyl)-4-((2S)-2-methyl-4-(2-propenoyl)-1-piperazinyl)-1-(4-(2-propanyl)-1H-pyrrol-3-yl)pyrido[2,3-d]pyrimidin-2(1H)-one]"
17,3.45 | nda μM,"C=CC(=O)N1CCN(c2nc(=O)n(-c3ccccc3)c3nc(-c4c(O)cccc4F)c(Cl)cc23)[C@@H](C)C1 [Example 100, 6-Chloro-7-(2-fluoro-6-hydroxyphenyl)-4-((2S)-2-methyl-4-(2-propenoyl)-1-piperazinyl)-1-phenylpyrido[2,3-d]pyrimidin-2(1H)-one]"
18,0.642 | nda μM,"C=CC(=O)N1CCN(c2nc(=O)n(-c3c(C)nc(C)nc3C(C)C)c3nc(-c4c(O)cccc4F)c(Cl)cc23)[C@@H](C)C1 (single isomer, unassigned) [Example 55-4-2]"
19,40.7 | nda μM,"C=CC(=O)N1CCN(c2nc(=O)n(-c3c(CC)cccc3CC)c3nc(N4CC[C@H](OC)C4)c(Cl)cc23)[C@@H](C)C1 [Example 66-22, 6-chloro-1-(2,6-diethylphenyl)-7-((3S)-3-methoxy-1-pyrrolidinyl)-4-((2S)-2-methyl-4-(2-propenoyl)-1-piperazinyl)pyrido[2,3-d]pyrimidin-2(1H)-one]"
20,65 | nda μM,"C=CC(=O)N1CCN(c2nc(=O)n(-c3c(CC)cccc3CC)c3nc(N4CCC(CC(C)C)C4)c(Cl)cc23)[C@@H](C)C1 (stereo partly drawn) [Example 66-12, 6-chloro-1-(2,6-diethylphenyl)-4-((2S)-2-methyl-4-(2-propenoyl)-1-piperazinyl)-7-(3-(2-methylpropyl)-1-pyrrolidinyl)pyrido[2,3-d]pyrimidin-2(1H)-one]"
21,7.56 | nda μM,"C=CC(=O)N1CCN(c2nc(=O)n(-c3c(C)ccnc3CC)c3nc(-c4ccccc4F)c(F)cc23)[C@@H](C)C1 (single isomer, unassigned) [Example 57-16-2]"
22,5.74 | nda μM,"C=CC(=O)N1CCN(c2nc(=O)n(-c3c(F)cccc3F)c3nc(-c4c(O)cccc4F)c(Cl)cc23)[C@@H](C)C1 [Example 60-17, 6-chloro-1-(2,6-difluorophenyl)-7-(2-fluoro-6-hydroxyphenyl)-4-((2S)-2-methyl-4-(2-propenoyl)-1-piperazinyl)pyrido[2,3-d]pyrimidin-2(1H)-one]"
23,5.29 | nda μM,"C=CC(=O)N1CCN(c2cc(=O)n(CC(C)(C)C)c3nc(-c4ccccc4F)c(Cl)cc23)CC1 [Example 122, 6-Chloro-1-(2,2-dimethylpropyl)-7-(2-fluorophenyl)-4-(4-(2-propenoyl)-1-piperazinyl)-1,8-naphthyridin-2(1H)-one]"
24,3.29 | nda μM,"C=CC(=O)N1CCN(c2nc(=O)n(-c3c(C)ccnc3C(C)C)c3nc(-c4cccc(F)c4O)c(F)cc23)[C@@H](C)C1 (atropisomer, axis not shown; (M)) [Example 72-3, (M)-6-fluoro-7-(3-fluoro-2-hydroxyphenyl)-1-(4-methyl-2-(2-propanyl)-3-pyridinyl)-4-((2S)-2-methyl-4-(2-propenoyl)-4-piperazinyl)pyrido[2,3-d]pyrimidin-2(1H)-one]"
25,0.806 | nda μM,C=CC(=O)N1CCN(c2nc(=O)n(-c3c(C)ccnc3N(C)C)c3nc(-c4ccccc4F)c(Cl)cc23)[C@@H](C)C1 [Example 55-7]
26,1.02 | nda μM,"C=CC(=O)N1CCN(c2nc(=O)n(-c3c(C)cccc3C(C)C)c3nc(-c4cc(Cl)ccc4O)c(F)cc23)[C@@H](C)C1 (single isomer, unassigned) [Example 113]"
27,4.65 | nda μM,"C=CC(=O)N1CCN(c2nc(=O)n(-c3c(OC)cccc3OC)c3nc(-c4ccccc4F)c(Cl)cc23)[C@@H](C)C1 [Example 54-68, 6-chloro-1-(2,6-dimethoxy-phenyl)-7-(2-fluorophenyl)-4-((2S)-2-methyl-4-(2-propenoyl)-1-piperazinyl) pyrido[2,3-d]pyrimidin-2(1H)-one]"
28,1.06 | nda μM,"C=CC(=O)N1CCN(c2nc(=O)n(-c3c(C)cccc3C(C)C)c3nc(-c4nc(N)cc5ccccc45)c(F)cc23)[C@@H](C)C1 (single isomer, unassigned) [Example 71-2-2]"

# Same assay, conditions: read-out: Coupled exchange IC50 (5 min); 5 min compound pre-incubation
row,IC50 [µM],Structure (SMILES)
1,117,"C=CC(=O)N1CC(Nc2nc(=O)n(-c3c(C)ccnc3C(C)C)c3nc(-c4ccccc4F)c(Cl)cc23)C1 (atropisomer, axis not shown; (M)) [Example 76-1, (M)-6-Chloro-7-(2-fluorophenyl)-1-(4-methyl-2-(2-propanyl)-3-pyridinyl)-4-((1-(2-propenoyl)-3-azetidinyl)amino)pyrido[2,3-d]pyrimidin-2(1H)-one]"

# Source: patent publication US11090304B2 (Amgen Inc., priority 2018, dated 2021)
